{"source": "patent US20240352502A1", "about": "“ANALYTICAL METHODS FOR BACTERIAL IDENTIFICATION AND ANTIBIOTIC SUSCEPTIBILITY TESTING IN BIOLOGICAL SAMPLES” (UNIVERSITY OF SCIENCE AND TECHNOLOGY OF CHINA, priority 2021, published 2024)", "test_system": "E. coli", "assay": "Antibiotic susceptibility test of a single living bacterium in whole blood by single-bacterium mass spectrometry (metabolite signal change)", "type": "cell-based, Escherichia coli", "conditions": "E. coli from whole blood supernatant; 10 μL of 8 mg/mL kanamycin or 10 μL of 2 mg/mL norfloxacin added into 500 μL; 30 min at 37° C.; FIG. 12", "experimental": "1 mL of whole blood was taken and placed in a centrifuge tube, centrifuged at 3000 rpm for 8 min; the blood cell pellet was discarded; 10 μL of 8 mg/mL kanamycin and 10 μL of 2 mg/mL norfloxacin were respectively added into 500 μL of the supernatant containing the bacterium, and incubated with shaking at 37° C. After 30 min of incubation, the supernatant was centrifuged at 10,000 rpm for 8 min; the supernatant was discarded, and the pellet was resuspended in 100 μL of deionized water; the solution containing the bacterium not having been incubated with the antibiotic was used as a reference group, and the same operations as above were performed. […]\n10 μL of 100 μM Acridine Orange as a staining agent was added into the solution containing the bacterium obtained in step (1) and step (2) to perform staining for 15 min. […] The resuspended solution containing the bacterium was dropped onto a polylysine slide and leave for 30 minutes to allow the bacterium to be adsorbed and fixed on the polylysine slide, and then the polylysine slide was rinsed with deionized water and dried at room temperature; the location of bacteria was observed under a fluorescence microscope. […]"}
{"smiles": "CCn1cc(C(=O)O)c(=O)c2cc(F)c(N3CCNCC3)cc21", "note": "[norfloxacin]", "values": [{"measurement": "change of alanyl-threonine (m/z 191) signal in a single bacterium after incubation with antibiotic", "result": "significantly reduced"}]}
